Structures can show the parent of a compound that is named as a salt.
What was measured:
[1] = molecular target: T1, Human vitronectin receptor (αvβ3) (Homo sapiens, UniProt P05106+P06756); assay: Vitronectin adhesion assay (solid phase receptor assay, competition with biotinylated vitronectin); type: binding; settings: read-out: AvB3 IC50
T1 construct: Human vitronectin receptor (αvβ3) was purified from human placenta; from tissue; host or cells: human placenta
Method: VITRONECTIN ADHESION ASSAY
Assay buffer, OPD substrate tablets, and RIA grade BSA were obtained from Sigma (St. Louis, Mo.). Anti-biotin antibody was obtained from Calbiochem (La Jolla, Calif.). Linbro microtiter plates were obtained from Flow Labs (McLean, Va.). ADP reagent was obtained from Sigma (St. Louis, Mo.).
(§1) Solid Phase Receptor Assays
(§2) The purified human vitronectin receptor (αvβ3) was diluted from stock solutions to 1.0 μg/mL in Tris-buffered saline containing 1.0 mM Ca^++, Mg^++, and Mn^++, pH 7.4 (TBS^+++). The diluted receptor was immediately transferred to Linbro microtiter plates at 100 μL/well (100 ng receptor/well). The plates were sealed and incubated overnight at 4° C. to allow the receptor to bind to the wells. All remaining steps were at room temperature. The assay plates were emptied and 200 μL of 1% RIA grade BSA in TBS^+++(TBS^+++/BSA) were added to block exposed plastic surfaces. Following a 2 hour incubation, the assay plates were washed with TBS^+++ using a 96 well plate washer. Logarithmic serial dilution of the test compound and controls were made starting at a stock concentration of 2 mM and using 2 nM biotinylated vitronectin in TBS^+++/BSA as the diluent. This premixing of labeled ligand with test (or control) ligand, and subsequent transfer of 50 μL aliquots to the assay plate was carried out with a CETUS Propette robot; the final concentration of the labeled ligand was 1 nM and the highest concentration of test compound was 1.0×10^−4 M. The competition occurred for two hours after which all wells were washed with a plate washer as before. Affinity purified horseradish peroxidase labeled goat anti-biotin antibody was diluted 1:3000 in TBS^+++/BSA and 125 μL were added to each well. After 30 minutes, the plates were washed and incubated with OPD/H2O2 substrate in 100 mM/L Citrate buffer, pH 5.0. The plate was read with a microtiter plate reader at a wavelength of 450 nm and when the maximum-binding control wells reached an absorbance of about 1.0, the final A450 were recorded for analysis. The data were analyzed using a macro written for use with the EXCEL™ spreadsheet program. The mean, standard deviation, and % CV were determined for duplicate concentrations. The mean A450 values were normalized to the mean of four maximum-binding controls (no competitor added)(B-MAX). The normalized values were subjected to a four parameter curve fit algorithm [Rodbard et al., Int.

[2] = molecular target: T2, Human fibrinogen receptor (αIIbβ3) (Homo sapiens, UniProt P05106+P08514); assay: Purified IIb/IIIa receptor assay (solid phase receptor assay, competition with biotinylated vitronectin); type: binding; settings: read-out: IIb/IIIa IC50
T2 construct: Human fibrinogen receptor (αIIbβ3) was purified from outdated platelets; from tissue; host or cells: outdated human platelets
Method: PURIFIED IIb/IIIa RECEPTOR ASSAY
Human fibrinogen receptor (αIIbβ3) was purified from outdated platelets. […] Biotinylated human vitronectin was prepared by coupling NHS-biotin from Pierce Chemical Company (Rockford, Ill.) to purified vitronectin as previously described. […] Anti-biotin antibody was obtained from Calbiochem (La Jolla, Calif.). Linbro microtiter plates were obtained from Flow Labs (McLean, Va.). ADP reagent was obtained from Sigma (St. Louis, Mo.).
as §1
as §2, with “human fibrinogen” for “human vitronectin”, “receptor (αIIbβ3)” for “receptor (αvβ3)”, “in TBS^+++ (TBS^+++/BSA)” for “in TBS^+++(TBS^+++/BSA)”, “with […]” for “with OPD/H2O2”, “mM/L citrate” for “mM/L Citrate”, “fit algorithm, [Robard” for “fit algorithm [Rodbard”

SMILES	IC50 [1] [nM]	IC50 [2] [nM]
O=C(O)CC(NC(=O)CNC(=O)c1cccc(NC2=NCCN2)c1)c1cc(Cl)cc(Cl)c1O (racemic) [Example 238, trifluoroacetate salt, monohydrate]	0.92	646
N=C(N)Nc1cccc(C(=O)NCC(=O)NC(CC(=O)O)c2cncnc2)c1 (stereo not drawn) [Example 243, β-[[2-[[[3-[(aminoiminomethyl)amino]phenyl]carbonyl]amino]acetyl]amino][pyrimidine-5-propanoic acid, trifluoroacetate salt]	0.35	23.6
Cc1ccc(C)c(C(CC(=O)O)NC(=O)CNC(=O)c2cccc(NC(=N)N)c2)c1 (racemic) [Example 181, (±)β-[[2-[[[3-[(aminoiminomethyl)amino]phenyl]carbonyl]amino]acetyl]amino]-2,5-dimethylbenzenepropanoic acid, trifluoroacetate salt]	132	22800
O=C(O)CC(NC(=O)CNC(=O)c1cccc(NC2=NCCN2)c1)c1cc(C(F)(F)F)cc(C(F)(F)F)c1 (racemic) [Example 179, (±)β-[[2-[[[3-[(4,5-dihydro-1H-imidazol-2-yl)amino]phenyl]carbonyl]amino]acetyl]-amino]-3,5-bis(trifluoromethyl)benzenepropanoic acid, trifluoroacetate salt]	2.72	927
COc1cc(C(CC(=O)O)NC(=O)CNC(=O)c2cccc(NC(=N)N)c2)cc2c1OCO2 (stereo not drawn) [Example 256, β-[[2-[[[3-[(aminoiminomethyl)amino]phenyl]carbonyl]amino]acetyl]amino]-4-methoxy-1,3-benzodioxole-6-propanoic acid, trifluoroacetate salt]	0.58	22
N=C(N)Nc1cccc(C(=O)NCC(=O)NC(CC(=O)O)c2ccn[nH]2)c1 (stereo not drawn) [Example 252, β-[[2-[[[3-[(aminoiminomethyl)amino]phenyl]carbonyl]amino]acetyl]amino]-1H-pyrazole-3-propanoic acid, trifluoroacetate salt]	1.52	213
N=C(N)Nc1cc(C(=O)NCC(=O)NC(CC(=O)O)c2cc(Br)cc(Br)c2)cc(C(F)(F)F)c1 (racemic) [Example 213, (±)β-[[2-[[[3-[(aminoiminomethyl)amino]-5-(trifluoromethyl)phenyl]carbonyl]amino]acetyl]amino]-3,5-dibromobenzenepropanoic acid, trifluoroacetate salt]	2.93	334
CSc1cccc(C(CC(=O)O)NC(=O)CNC(=O)c2cccc(NC(=N)N)c2)c1 (racemic) [Example 245, (±)β-[[2-[[[3-[(aminoiminomethyl)amino]phenyl]carbonyl]amino]acetyl]amino]-3-(methylthio)benzenepropanoic acid, trifluoroacetate salt]	0.96	134
O=C(O)CC(NC(=O)CNC(=O)c1cccc(NC(=O)NCc2ccccc2)c1)c1cc(Cl)cc(Cl)c1 (stereo not drawn) [Example 269, 3,5-dichloro-β-[[2-[[[3-[[[(phenylmethyl)amino]carbonyl]amino]phenyl]carbonyl]amino]acetyl]amino]benzenepropanoic acid, monohydrate]	209	25400
C/N=C(\NCc1ccncc1)Nc1cccc(C(=O)NCC(=O)NC(CC(=O)O)c2ccc(F)cc2)c1 (racemic) [Example 299, (±)4-fluoro-β-[[2-[[[3-[[[(4-pyridinylmethyl)amino](methylimino)methyl]amino]phenyl]carbonyl]amino]acetyl]amino]benzenepropanoic acid, trifluoroacetate salt]	109	927
N=C(N)Nc1cccc(C(=O)NCC(=O)NC(CC(=O)O)c2cc(Br)cc(I)c2)c1 (racemic) [Example 219, (±)β-[[2-[[[3-[(aminoiminomethyl)amino]phenyl]carbonyl]amino]acetyl]amino]-3-bromo-5-iodobenzenepropanoic acid trifluoroacetate salt]	2.29	253
O=C(O)CC(NC(=O)CNC(=O)c1cccc(NC(=O)NCc2ccncc2)c1)c1cccnc1 (stereo not drawn) [Example 266, β-[[2-[[[3-[[[(4-pyridinylmethyl)amino]carbonyl]amino]phenyl]carbonyl]amino]acetyl]amino]pyridine-3-propanoic acid, (bis)trifluoroacetate salt]	0.77	1810
N=C(N)Nc1cccc(C(=O)NCC(=O)NC(CC(=O)O)c2cc(Br)cc(Br)c2)c1 (racemic) [Example 210, (±)β-[[2-[[[3-[(aminoiminomethyl)amino]phenyl]carbonyl]amino]acetyl]amino]-3,5-dibromobenzenepropanoic acid, trifluoroacetate salt]	2.62	343
CCOC(=O)NC(=S)Nc1cccc(C(=O)NCC(=O)NC(CC(=O)O)c2cc(Cl)cc(Cl)c2)c1 (stereo not drawn) [Example 240, 3,5-dichloro-β-[[2-[[[3-[[[(ethoxycarbonyl)amino]thioxomethyl]amino]phenyl]carbonyl]amino]acetyl]amino]benzenepropanoic acid]	49400	76400
N=C(N)Nc1ccc(O)c(C(=O)NCC(=O)NC(CC(=O)O)c2cc(Cl)cc(Cl)c2)c1 (stereo not drawn) [Example 279, β-[[2-[[[5-[(aminoiminomethyl)amino]-2-hydroxyphenyl]carbonyl]amino]acetyl]amino]-3,5-dichlorobenzenepropanoic acid, trifluoroacetate salt]	7.12	637
O=C(O)CC(NC(=O)CNC(=O)c1cccc(NC2=NCCS2)c1)c1cccnc1 (stereo not drawn) [Example 101, β-[[2-[[[3-[(4,5-dihydrothiazol-2-yl)amino]phenyl]carbonyl]amino]acetyl]amino]pyridine-3-propanoic acid, trifluoroacetate salt]	1680	65700
N=C(N)Nc1cc(C(=O)O)cc(C(=O)NCC(=O)NC(CC(=O)O)c2cccnc2)c1 (stereo not drawn) [Example 289, β-[[2-[[[3-[(aminoiminomethyl)amino]-5-carboxyphenyl]carbonyl]amino]acetyl]amino]pyridine-3-propanoic acid, bis(trifluoroacetate)salt]	0.9	621
C#C[C@H](CC(=O)O)NC(=O)CNC(=O)c1ccc(Cl)c(NC(=N)N)c1 [Example 173, 3S-[[2-[[[3-[(aminoiminomethyl)amino]-4-chlorophenyl]carbonyl]amino]acetyl]amino]-4-pentynoic acid, trifluoroacetate salt]	0.5	17.4

Reference: patent US6831199B1, “Pyrimidine compounds and derivatives thereof” (G. D. Searle & Co., priority 1995, dated 2004)
